# Assay results published in a melting point compilation (Tetko et al.; mined from patent text by program, amines drawn as free bases though some values may be those of a salt).
row,SMILES,melting point [°C]
1,COC(=O)c1c2c(c3c(C)c(OC)c(OC)c(OC)c3c1-c1ccc(OC)c(OC)c1)OCOC2=O,84 to 85
2,CCOC(=O)c1ncn2c1CN(C)C(=O)c1c(Br)cccc1-2,214 to 215
3,Cc1ccc2c(c1)C=Cc1cc(C)ccc1C2c1cn(Cc2nc(C(=O)N[C@@H](CC(=O)O)C(=O)O)cs2)c(=O)[nH]c1=S,175
4,O=C(O)c1c([N+](=O)[O-])cccc1[N+](=O)[O-],200 to 202
5,CCOC(=O)CCN(C)Cc1ccc(NC(=O)C2=Cc3cc(-c4ccc(N5CCOCC5)cc4)ccc3S(=O)(=O)CC2)cc1,209 to 211
6,CC(C)c1nsc2c1C(=O)N(C(C)(C)C)C2=O,52 to 53
7,COc1ccc(NC(=O)c2c(Cl)cccc2Cl)c2nccc(NNC(C)=O)c12,> 250
8,O=CN1CCN(C(=O)CCBr)CC1,96 to 98
9,O=[N+]([O-])c1ccc(OCC(F)(F)F)c(OCC(F)(F)F)c1,63 to 65
10,O=C1c2ccccc2-c2ncccc21,132 to 136
11,C(#Cc1ccc(C2=CC(c3ccc(C#Cc4ccccc4)cc3)N(c3ccccc3)N2)cc1)c1ccccc1 (stereo not given),200 to 204
12,CSC1Oc2ccccc2C1=O (stereo not given),81 to 82
13,CCCCNC(=O)Oc1c(C)cc(Oc2ccc(C)cc2)cc1C,110 to 112
14,COc1ccc(CS(=O)(=O)Cc2ccc(OC)cc2OC)c(OC)c1,104 to 106
15,CN(C)c1noc(-c2ncn3c2COc2cc(F)ccc2-3)n1,239 to 240
16,CNC(=O)N(N)CC(C)O (stereo not given),99 to 101
17,COc1cccc(-c2nc(N)nc(Nc3ccc(O)cc3)n2)c1,93.5 to 94
18,CCOC(=O)/C=C/c1cn(Cc2ccccc2)nc1OCc1ccc(OCc2nc(-c3ccco3)oc2C)c(OC)c1,147 to 148
19,O=C1CC2O/C(=C/C3(C(=O)OCc4ccccc4)C=CC=CC3)CN12 (stereo not given),120 to 121
20,COc1ccc(CCNCC(O)c2cc(OCc3ccccc3)cc(OCc3ccccc3)c2)cc1OC (stereo not given),85 to 86
21,CC(C)c1ccc2oc(C(O)COc3ccc(CO)cc3)cc2c1 (stereo not given),98 to 100
22,O=c1[nH]c2cc([N+](=O)[O-])cnc2n1-c1ccc2c(c1)OCO2,224 to 225
23,NC(=O)c1c(F)ccc(OCC(=O)O)c1F,152 to 153
24,O=C(NCCCl)Sc1ncnc2nc[nH]c12,221 to 223
25,Cc1cccc(-n2c(CCl)nc3ccccc3c2=O)c1,183 to 185

row,SMILES,melting point [°C]
1,On1c(C(F)(F)F)nc2nc(Br)c(Cl)c(Br)c21,215
2,Cc1ccccc1[C@H]1O[C@H](CC(=O)O)C(=O)N(CC(C)C)c2ccccc21 (relative stereo),192 to 195
3,Fc1ccc(Cn2c(NC3CCN(CCOc4nc5ccccc5s4)CC3)nc3ccccc32)cc1,147
4,CS(=O)(=O)c1ccc(-c2nn(Cc3ccccc3)c(C(F)(F)F)c2-c2ccc(F)cc2)cc1,126
5,COc1cc(C(C)=O)cc(OC)c1OCCCC(=O)O,122 to 124
6,Nc1nc2c(ncn2Cc2ccccc2)c(=O)[nH]1,305 to 308
7,CCN1c2ncc(CN(C)c3ccccc3)cc2C(=O)N(C)c2ccc(Cl)nc21,55 to 57
8,COc1ccc(-c2nc(Cl)cc(N3CCN(C)CC3)n2)cc1,88 to 90
9,COC(=O)CC(Nc1ccccc1OC)c1ccc2ccccc2n1 (stereo not given),119 to 121
10,O=C(c1ccco1)C1C(=O)N(c2nccs2)c2ccccc21 (stereo not given),156 to 157
11,O=C1NCC2(CCN(Cc3ccccc3)CC2)O1,159 to 161
12,CCc1nnc(NC(=O)C2c3ccccc3Oc3ccccc32)o1,256 to 257
13,CSc1cc(-c2ccccc2)nc(-c2cccc(C(F)(F)F)c2)c1,79.1
14,O=C1NC(=O)C(Cc2ccc(OCc3nc(-c4ccccc4)cs3)cc2)S1 (stereo not given),164 to 165
15,CN1CCN(c2ccccc2C(O)C2SCCNC2=O)CC1 (stereo not given),137 to 139
16,COC(=O)c1cc2c(C)ccc(C)c2n1C(=O)Oc1ccccc1,83 to 84
17,O=C1CC(=O)c2cc(OCCCOc3ccccc3)ccc21,91 to 94
18,CCCCN/C(=C1/Sc2ccccc2C1=O)c1ccccc1,106 to 107
19,C[Si](C)(C)CCOCn1cc(C#N)c(=O)c2cc([N+](=O)[O-])c(Cl)cc21,200 to 202
20,CC1c2cnc3ccc(O[Si](C)(C)C(C)(C)C)cc3c2C(CO[Si](C)(C)C(C)(C)C)C(O)C1O (stereo not given),206 to 209
21,O=C(O)CCc1ccc([N+](=O)[O-])cc1,162 to 164
22,Cc1cc(Cn2nc(-c3ccccc3)oc2=O)cc(C)c1O,135
23,c1cncc(-c2ccnc(Nc3cccc(-n4ccnc4)c3)n2)c1,95 to 120
24,CN(C)c1nc2sc3c(NCc4cccnc4)ncnc3c2c2c1COC(C)(C)C2,250 to 252
25,CNC12CC(O)CCC1CCc1ccccc12 (stereo not given),141 to 143

row,SMILES,melting point [°C]
1,CC1CC2C3CCC4=CC(=O)C=CC4(C)C3=CCC2(C)C1C(=O)CN1CCN(c2cc(NC3CCCC3)nc(NC3CCCC3)n2)CC1 (stereo not given),180 to 185
2,O=C(O)C1CCc2ccccc2N1C(=O)CCS (stereo not given),130 to 132
3,C=CCNC(=O)C1CCc2ccccc2O1 (stereo not given),76 to 77
4,O=C(O)CN(Cn1nnc2ccccc21)Cn1nnc2ccccc21,163 to 166
5,CCC(=O)NC1=NN(c2ccccc2)C(c2ccc(C)cc2)C1 (stereo not given),124 to 125
6,[O-][N+]1=C(c2ccccc2)c2cc(C(F)(F)F)ccc2-n2c(CBr)nnc2C1,185 to 210
7,CCC(=O)c1ccnc(OC)c1,38
8,COC(=O)c1nc(CCN(C)C)n2c1CN=C(c1ccccc1Cl)c1cc(Cl)ccc1-2,203 to 204
9,CCOC(=O)CC(O)c1ccc([N+](=O)[O-])c(OC)c1 (stereo not given),54 to 56
10,CCCN(CCC)c1c([N+](=O)[O-])cc(S(=O)(=O)N(C)C(=O)OC)cc1[N+](=O)[O-],90 to 94
11,Cc1noc(NS(=O)(=O)c2ccccc2-c2ccc(C(F)(F)F)cc2)c1C,57 to 62
12,COc1cc2cc(CO)c(CO)c(C)c2cc1OC,180 to 182
13,O=C(Nc1ccccc1)OCCCC(=O)c1ccccc1,121 to 123
14,Cc1ccccc1CN1CCC(c2cc(-c3ccc(Cl)cc3)[nH]n2)CC1,142 to 143
15,O=c1oc2c(OCc3nnn[nH]3)c(O)c(OCc3nnn[nH]3)c(O)c2c2c1CCCC2,283 to 286
16,COc1cc(C2CCCCC2)ccc1C(=O)CCC(=O)O,130 to 131
17,Cc1ncc(-c2ccc(F)cc2)n1-c1ccc(Cl)cc1,132 to 134
18,Nc1cccc(-c2ccc3nncn3n2)c1,225
19,N=C(NO)c1cccc(COC(=O)c2cc3ccccc3n2Cc2cccc(C(=N)NO)c2)c1,114 to 116
20,c1cc(N2CCNCC2)c2nccnc2c1,106 to 108
21,NNC(=O)c1ccc(OC(F)(F)C(F)(F)F)cc1,117 to 120
22,CSC(=C(N)c1ccc2oc(C)cc2c1)S(C)=O (stereo not given),185 to 186
23,CCN1C(=O)CCCc2cc(Nc3ncc(Cl)c(Nc4ccccc4S(=O)(=O)N(C)C)n3)c(OC)cc21,147 to 153
24,Nc1ncnc2c1ncn2Cc1nc2cccc(F)c2c(=O)n1-c1ccccc1Cl,159 to 172
25,CC(C)[C@H]1COC(=O)N1C(=O)[C@@H](CC(=O)N(C)Cc1ccccc1)Cc1ccccc1,60 to 62

row,SMILES,melting point [°C]
1,NCc1c(-c2ccc(Oc3ccccc3)cc2)c2c(N)ncnc2n1C1CCCC1,196 to 198
2,Cn1cnc(COc2nc3c(cc2C(C)(C)C)nnn3-c2ccccc2)n1,179 to 180
3,CCCOCOCCc1ccc(OCCCOC(=O)C2=C(C)NC(C)=C(C(=O)OC)[C@@H]2c2cccc([N+](=O)[O-])c2)cc1,< 50
4,O[C@H]1CC[C@H](CN2CCC(=C3c4ccc(F)cc4Sc4ccc(C(F)(F)F)cc43)CC2)CC1,144 to 146
5,COc1ccc(NC(=O)C(F)(F)F)cc1C12CC3CC(CC(C3)C1)C2,166 to 167
6,COC(=O)C(=O)c1ccc(OCCOC2CCc3ccccc3C2)cc1 (stereo not given),86 to 87
7,CC1(C)[C@@H]2CC3[C@H](C(=O)O)[C@@]3(C)C[C@@H]21 (stereo not given in full),86
8,O=S(=O)(Nc1cc(Br)nc(Br)c1)c1cccc(Cl)c1,187 to 189
9,Cc1nc2c(C)cc(Oc3cnc(N)nc3N)c(C(C)C)c2o1,> 300
10,Oc1c(Cl)cc(Cn2c(S)nc3ccccc32)cc1Cl,246
11,CC(C)(O)c1onc(-c2ccccc2Cl)c1C(=O)c1nnn(Cc2cc(C(F)(F)F)cc(C(F)(F)F)c2)c1-c1cccnc1,105
12,CCOC(=O)C(=C(C)N)c1nc(N)c([N+](=O)[O-])nc1Cl,162 to 163
13,CCCCCCCCCCCCCCCCNc1ccc(C(=O)N(C)C)cc1,70 to 72
14,Nc1ccccc1NS(=O)(=O)c1ccc([N+](=O)[O-])cc1,190 to 191
15,CC(CCC(=O)OCc1ccccc1)C1CC=C2C3=C(CCC21C)C1(C)CCC(O)C(C)(C)C1CC3 (stereo not given),118 to 119
16,CCOC(=O)C(C#N)c1ncccc1[N+](=O)[O-] (stereo not given),133 to 134
17,O=c1[nH]c2ccccc2n1CCOC1CCCCO1 (stereo not given),115
18,CCCn1nc(-c2c(-c3ccccc3)nn3ccc(OC)cc23)ccc1=O,174
19,CN(O)C(=O)Nc1c(C(=O)c2cccc(Cl)c2)[nH]c2cc(Cl)ccc12,205 to 206
20,Cc1cc(-c2cc(C(F)(F)F)nc(-n3cnc(-c4cccc(S(N)(=O)=O)c4)c3)n2)ccc1C(F)(F)F,180
21,COc1cc(OC)cc(C(=O)NCC(=O)N2c3ccccc3N(Cc3ccccc3)C(=O)[C@H]3CCC[C@H]32)c1 (relative stereo),113 to 115
22,NCC1Cc2cc(C(F)(F)F)cc(-c3ccc(F)c(Cl)c3)c2O1 (stereo not given),> 250
23,CCOc1ccc2[nH]c(SCc3cccn4ccnc34)nc2c1,157 to 160
24,COc1ccc([C@H](Sc2cc(Cc3ccccc3)ccc2N)[C@@H](O)C(=O)O)cc1,155 to 158
25,CCCN1CCC=C(c2cccc3[nH]cc(Br)c23)C1,156
